# In paper PMC12354831 (Cell Death Discovery, 2025):
# Assays:
# U251-MG cells [1] = test: CCK-8 IC50 determination in U251-MG cells with or without GLUT3 OE; assay type: cell-based, human; details: GLUT3 OE vs control, CCK-8, 24 h drug treatment
# Description: The GBM cell line was seeded into a 96-well plate at a density of 5 × 10^3 cells per well and incubated at 37 °C in a humidified atmosphere containing 5% CO2 overnight. […] Following 24 h of drug treatment, 10 µL of CCK-8 reagent was added to each well, and the cells were incubated for an additional 1 h at 37 °C. The absorbance was then measured at 450 nm using a microplate reader.
# In this study, the experimental groups were designated as Group A (cells treated with temozolomide (TMZ) or capecitabine (CAPE)), the control group as Group B (cells treated with DMSO), and the blank control group as Group C ([…]). The cell viability rate was calculated using the formula: (A-C)/(B-C) × 100%, where A, B, and C represent the absorbance values of Group A, Group B, and Group C, respectively.
# GLUT3 = biological target: T1, GLUT3 (Homo sapiens, UniProt P11169); test: Cellular uptake of TMZ and CAPE by LC-MS/MS, GLUT3 KD U343-MG cells; assay type: in vitro ADME; details: for extracellular drug level higher than controls: GLUT3-KD U343-MG cells, remaining extracellular drug after uptake; for reduction of drug uptake by GLUT3 KD: U343-MG cells, 200 μM drug, 37 °C, 15 min, intracellular level vs control
# T1 construct: expressed in transfected cells
# T1 sequence (P11169 1-496): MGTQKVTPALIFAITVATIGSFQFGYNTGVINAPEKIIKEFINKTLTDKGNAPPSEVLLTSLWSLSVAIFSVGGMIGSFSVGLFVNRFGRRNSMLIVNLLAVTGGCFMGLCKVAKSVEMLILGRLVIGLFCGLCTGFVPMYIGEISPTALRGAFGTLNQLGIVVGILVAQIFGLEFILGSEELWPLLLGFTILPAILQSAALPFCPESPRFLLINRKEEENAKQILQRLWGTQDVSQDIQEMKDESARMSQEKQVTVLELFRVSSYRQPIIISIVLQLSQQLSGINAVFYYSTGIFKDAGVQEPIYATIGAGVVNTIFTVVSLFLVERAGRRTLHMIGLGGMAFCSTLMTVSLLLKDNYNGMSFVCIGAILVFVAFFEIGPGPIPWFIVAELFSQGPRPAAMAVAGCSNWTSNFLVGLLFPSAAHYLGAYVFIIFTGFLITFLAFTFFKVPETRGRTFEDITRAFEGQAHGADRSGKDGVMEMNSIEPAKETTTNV
# Description: A total of 6 × 10^6 cells were seeded into each well of a 6 cm Petri dish and cultured at 37 °C in a humidified atmosphere containing 5% CO2 for 8 h. The cells were then washed twice with PBS (137 mM NaCl, 2.7 mM KCl, 10 mM Na2HPO4, 1.8 mM KH2PO4, pH 7.4) and incubated in transport buffer (140 mM NaCl, 5 mM KCl, 2 mM MgCl2, 2 mM CaCl2, 30 mM Tris-HCl, pH 7.4) for 15 min at 37 °C. […] Cell supernatants were collected and stored at 4 °C for subsequent extraction. The harvested cells were washed three times with PBS and extracted with 500 µL of 80% methanol for 30 min at −80 °C. The cell lysate was then centrifuged at 14,000 × g for 5 min at 4 °C, followed by 2 min of sonication. The supernatant was transferred to a new centrifuge tube. For LC-MS/MS analysis, the cell supernatants and cell lysates were diluted at a specific ratio. A total of 100 µL of each sample was mixed with 100 µL of acetonitrile (or standard reagent) and 300 µL of internal standard solution (^2H3-TMZ 100 ng/mL and ^2H11-CAPE 20 ng/mL dissolved in acetonitrile). […] Quality control (QC) samples were prepared and analyzed alongside the experimental samples to monitor the stability and repeatability of the instrument. QC samples were inserted regularly and analyzed every 6–12 samples. Each experiment was repeated 5–6 times.
# LC-MS/MS analyses were performed using a high-performance liquid chromatography (HPLC) system (Shimadzu, LC-20A) coupled to a […] (ABSciex, API4000 QTRAP). The samples were separated on a 2.1 × 100 mm ACQUITY Premier BEH C18 1.7 µm VanGuard™ FIT column (Waters, Ireland). The mobile phases consisted of: Mobile phase A (0.1% formic acid and 2.5 mM ammonium acetate in water) and Mobile phase B (0.1% formic acid and 2.5 mM ammonium acetate in acetonitrile). Gradient elution was employed, with the flow rates and gradient conditions detailed in Table S2.
# The mass spectrometry conditions were as follows: Ion source: electrospray ionization (ESI); Detection mode: positive ion mode; Scanning method: multiple reaction monitoring (MRM); Spray voltage (IS): 5500 V; Ion source temperature (TEM): 555 °C; Gas curtain pressure (CUR): 25 psi; Collision activation dissociation (CAD): MEDIUM; Nebulizer gas pressure (GS1): 55 psi; Auxiliary gas pressure (GS2): 55 psi.
# GLUT3 mutants = test: MST binding assay, GLUT3 mutants taken together vs WT; parameters: species or system human
# Description: Data from three independent measurements were analyzed using MO. Affinity Analysis software (version 2.1.3, NanoTemper Technologies).
# U251-MG cells [2] = test: Colony formation assay in U251-MG cells overexpressing GLUT3 Q159A, W386A or WT; assay type: cell-based, human; details: TMZ 200 μM or CAPE 400 μM every two days
# Description: GBM cells were harvested using 0.25% trypsin when cell viability was confirmed to be optimal, and the cell concentration was determined using a hemocytometer. A total of 1 × 10³ cells were seeded into each well of a 6-well plate and incubated at 37 °C overnight. The following day, cell morphology was examined under an inverted microscope. The culture medium was replaced every 2 days, and cell growth was monitored regularly. When cell colonies exceeded 50 cells, they were recorded. The cells were then washed with pre-warmed PBS. Subsequently, the cells were fixed with 4% paraformaldehyde (1 mL per well) for 20 min at room temperature. After fixation, the cells were washed three times with PBS. A total of 1 mL of 0.1% crystal violet staining solution was added to each well for 20 min. The wells were then washed three times with distilled water, covered with a plate lid, and left to dry overnight. The number of colonies in each well was quantified using ImageJ software.
# The medium was replaced every 2 days. When colonies visible to the naked eye had formed, the cells were fixed with 4% paraformaldehyde and stained with 0.1% crystal violet as described above. The colonies were then quantified using ImageJ software for statistical analysis.
# [3] = GLUT3 Q159A vs GLUT3 WT overexpression
# [4] = GLUT3 W386A vs GLUT3 WT overexpression
SMILES,reduction of IC50 in GLUT3 overexpressing cells compared to control cells (U251-MG cells [1]) [%],extracellular drug level higher than controls (GLUT3) [%],reduction of drug uptake by GLUT3 KD (GLUT3) [%],Kd increase vs WT (GLUT3 mutants; seven mutants) [fold],fold increase in colony numbers (U251-MG cells [2]; [3]) [fold],fold increase in colony numbers (U251-MG cells [2]; [4]) [fold],"Kd increase vs WT (GLUT3 mutants; mutants T28A, S71A, Q281A, N286A, W386A, and G417A) [fold]"
"CCCCCOC(=O)Nc1nc(=O)n([C@@H]2O[C@H](C)[C@@H](O)[C@H]2O)cc1F [CAPE, capecitabine]",94.4,12,65.5,> 1000,1.7,4.4,
Cn1nnc2c(C(N)=O)ncn2c1=O [TMZ],97.7,3,54.3,,0.97,7.3,> 1000
